Entries after “also recorded” stand apart in the source; their conditions may differ.
Legend:
[1] = test system: epididymal CD11b+F4/80+ ATMs and CD11c+ M1 ATMs; test: Flow cytometry of epididymal adipose tissue macrophages in DIO intervention study; type: in vivo, mice
12-week HFD-fed DIO mice [2] = test: Oral glucose tolerance test in DIO intervention study; type: in vivo; conditions: 21 consecutive days
12-week HFD-fed DIO mice [3] = test: DIO intervention study: body weight, fat mass, fat pad weight, food intake; type: in vivo; conditions: 21 consecutive days
6-week 36% HFD-fed mice = conditions: cited from earlier work
[4] = test system: 20 week 21% HFD-fed DIO mice; conditions: 15 days of CB2 agonism; cited from earlier work
DIO mice [5] = conditions: 4 weeks' treatment of DIO mice; cited from earlier work
[6] = test system: 12-week HFD-fed CB2−/− DIO mice; test: DIO intervention study in CB2-/- mice: body weight, adiposity, appetite; type: in vivo; conditions: AM251 10 mg/kg oral gavage, 21 consecutive days
[7] = test system: diet-induced obese (DIO) mice; conditions: treatment of DIO mice with CB1 antagonist; cited from earlier work
DIO mice [8] = conditions: chronic administration in DIO mice; cited from earlier work
[9] = SR144528 10 mg/kg oral gavage, versus vehicle-treated mice
[10] = JWH-133 5 mg/kg oral gavage, 21 consecutive days, 5 mg/kg
[11] = 6-week 36% HFD-fed mice, treatment for 15 days
[12] = Deveaux et al., 15 day treatment of 6-week HFD-fed DIO
[13] = AM251 10 mg/kg oral gavage, WT DIO mice

SR144528
adipose tissue inflammation ([1]; SR144528 10 mg/kg oral gavage, 21 consecutive days, versus vehicle-treated mice): no changes | glucose tolerance (12-week HFD-fed DIO mice [2]; [9]): no changes | body weight (12-week HFD-fed DIO mice [3]; [9]): no changes | food intake (12-week HFD-fed DIO mice [3]; [9]): no changes

CCCC(C)(C)c1ccc2c(c1)OC(C)(C)[C@@H]1CC=C(C)C[C@@H]21 [JWH-133]
numbers of M1 ATMs per gram of fat ([1]; JWH-133 5 mg/kg oral gavage, 21 consecutive days): increased | numbers of ATMs per gram of fat [1, 10]: increased and more | total ATMs [1, 10]: promoted persistence; also recorded: stable abundance | glucose tolerance (12-week HFD-fed DIO mice [2]; JWH-133 5 mg/kg oral gavage): did not significantly alter | adipose tissue inflammatory markers (6-week 36% HFD-fed mice; [11]): increased | body weight (6-week 36% HFD-fed mice; [11]): no change | obesity (6-week 36% HFD-fed mice; [12]): potentiated | white adipose tissue expression of Emr1 (macrophage marker F4/80) (6-week 36% HFD-fed mice; [12]): increased | body weight (12-week HFD-fed DIO mice [3]; JWH-133 5 mg/kg oral gavage): did not significantly alter | fat mass (12-week HFD-fed DIO mice [3]; JWH-133 5 mg/kg oral gavage): did not significantly alter | food intake (12-week HFD-fed DIO mice [3]; JWH-133 5 mg/kg oral gavage): did not significantly alter | fat pad mass (12-week HFD-fed DIO mice [3]; JWH-133 5 mg/kg oral gavage, 5 mg/kg): fat pad loss; also recorded: fat pad shrinkage

CCCn1c(C)c(C(=O)c2cccc3ccccc23)c2ccccc21 [JWH-015]
adiposity [4]: reduced | appetite response [4]: anorectic response | body weight loss [4]: approximately 10% | glucose tolerance [4]: improved | lipolysis [4]: increased

Cc1c(C(=O)NN2CCCCC2)nn(-c2ccc(Cl)cc2Cl)c1-c1ccc(I)cc1 [AM251]
epididymal ATM numbers ([1]; AM251 10 mg/kg oral gavage, after 3 weeks of treatment, 10 mg/kg): remained constant; also recorded: persistent abundance | body weight (DIO mice [5]): rapid and sustained weight loss | adiposity [6]: reduced | appetite [6]: suppressed | body weight [6]: weight loss | fat pad mass (12-week HFD-fed DIO mice [3]; AM251 10 mg/kg oral gavage): reduced | adiposity (12-week HFD-fed DIO mice [3]; [13]): reduced | appetite (12-week HFD-fed DIO mice [3]; [13]): suppressed | body weight (12-week HFD-fed DIO mice [3]; [13]): weight loss

Cc1c(C(=O)NN2CCCCC2)nn(-c2ccc(Cl)cc2Cl)c1-c1ccc(Cl)cc1 [SR141716A]
adipose tissue inflammation (DIO mice [5]): decreased | body weight (DIO mice [5]): rapid and sustained weight loss | metabolic impairments [7]: amelioration | obesity [7]: amelioration

CCCCCc1cc(O)c2c(c1)OC(C)(C)[C@@H]1CCC(C)=C[C@@H]21 [THC, delta-9-tetrahydrocannabinol]
HFD-induced adiposity (DIO mice [8]): reduces | HFD-induced polyphagia (DIO mice [8]): reduces | HFD-induced weight gain (DIO mice [8]): reduces

COc1ccc(C(=O)c2c(C)n(CCN3CCOCC3)c3cc(I)ccc23)cc1 [AM630]
adipose tissue inflammatory markers (6-week 36% HFD-fed mice; [11]): reduced | ATMs (6-week 36% HFD-fed mice; 6-week 36% HFD-fed mice): reduced
